IC50 data for 23 compounds are collected here from patent US8901118B2, “Compounds and methods for kinase modulation, and indications therefor” (Plexxikon Inc., priority 2010, dated 2014).

SMILES strings stand for the structures.

In one experiment the target is T1, BCR-NTRK3 BaF3 cells (Homo sapiens, UniProt Q16288).
T1 construct: fused on or other part: P11274 (Breakpoint cluster region protein)
Kind of experiment: BaF3 BCR-NTRK3 cell proliferation assay (ATPlite). It counts as cell-based. As to conditions: read-out: Inhibition of Cell Proliferation IC50, BCR/BaF3 TrkC. An outline of the steps:
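IL-3-free growth, 3-day compound exposure (8-point 1:3 titration, top 10 μM, DMSO control), 37 °C 5% CO2. BaF3 10,000 or MV-4-11 25,000 cells/well, plated overnight beforehand. Read-out ATPlite luminescence vs concentration → IC50.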
(In ATP-based viability assays light output follows the ATP content of the culture.)

For a further experiment, the target named is CYP3A4(BFC) (Homo sapiens, UniProt P08684). The experiment is described as follows: CYP3A4(BFC) inhibition. It is filed as in vitro ADME. As to conditions: CYP3A4, substrate BFC; read-out: Cyp IC50 3A4(BFC). An outline of the steps:
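This fluorescence assay tracks how test compounds reduce CYP3A4 turnover of BFC, with enzyme and substrate from BD Biosciences. A 10-point 1:1 dilution series in cofactor mix (1.3% NADPH Regeneration Solution A, 1.04% Solution B, 5% acetonitrile, 0.05% DMSO) was dispensed at 10 μL into 384 well plates, preincubated 10 minutes at 37° C, then incubated 30 min and read on a Tecan Safire 2.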

The target of the next experiment is T2, CYP1A2 (Homo sapiens, UniProt P05177).
T2 sequence (P05177 1-516): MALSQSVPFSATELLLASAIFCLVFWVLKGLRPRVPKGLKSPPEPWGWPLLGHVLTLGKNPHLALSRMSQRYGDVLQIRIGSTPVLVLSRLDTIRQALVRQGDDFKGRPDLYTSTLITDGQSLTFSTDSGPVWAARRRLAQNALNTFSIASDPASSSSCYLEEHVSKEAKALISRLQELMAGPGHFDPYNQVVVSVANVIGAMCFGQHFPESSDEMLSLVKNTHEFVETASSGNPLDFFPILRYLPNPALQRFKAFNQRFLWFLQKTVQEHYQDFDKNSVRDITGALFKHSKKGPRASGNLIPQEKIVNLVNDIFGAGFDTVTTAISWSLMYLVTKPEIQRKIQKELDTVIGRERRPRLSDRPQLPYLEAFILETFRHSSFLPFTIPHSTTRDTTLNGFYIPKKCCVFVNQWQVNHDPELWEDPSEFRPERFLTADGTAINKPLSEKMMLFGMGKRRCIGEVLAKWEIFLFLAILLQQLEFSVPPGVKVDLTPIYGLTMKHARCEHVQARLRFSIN
Kind of experiment: CYP1A2 inhibition (fluorescent substrate CEC). It counts as in vitro ADME. As to conditions: read-out: Cyp IC50 1A2. An outline of the steps:
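IC50 derives from metabolite fluorescence against compound concentration, read at excitation 409 nm and emission 460 nm for CYP1A2/2C19 or 530 nm for CYP2C9/2D6. Incubations ran at 37° C for 15 min (1A2), 45 min (2C9) or 30 min (2C19, 2D6), after serial dilution into NADPH cofactor mix and 10 min preincubation.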

CYP3A4(BFC), sequence (P08684 whole entry): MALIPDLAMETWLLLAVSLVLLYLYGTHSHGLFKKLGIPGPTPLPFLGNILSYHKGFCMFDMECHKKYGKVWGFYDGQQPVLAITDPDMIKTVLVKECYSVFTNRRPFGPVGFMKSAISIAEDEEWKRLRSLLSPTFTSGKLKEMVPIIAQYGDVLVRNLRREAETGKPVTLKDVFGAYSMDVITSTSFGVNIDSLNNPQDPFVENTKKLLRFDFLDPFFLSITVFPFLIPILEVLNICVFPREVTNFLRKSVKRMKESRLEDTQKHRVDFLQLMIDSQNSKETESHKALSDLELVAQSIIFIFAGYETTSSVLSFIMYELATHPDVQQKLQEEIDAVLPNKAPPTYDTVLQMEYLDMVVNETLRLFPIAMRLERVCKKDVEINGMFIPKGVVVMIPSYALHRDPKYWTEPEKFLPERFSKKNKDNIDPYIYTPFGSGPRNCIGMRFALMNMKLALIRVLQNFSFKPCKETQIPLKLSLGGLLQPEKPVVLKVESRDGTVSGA
T1 sequence (Q16288 whole entry, the tested form may be a part): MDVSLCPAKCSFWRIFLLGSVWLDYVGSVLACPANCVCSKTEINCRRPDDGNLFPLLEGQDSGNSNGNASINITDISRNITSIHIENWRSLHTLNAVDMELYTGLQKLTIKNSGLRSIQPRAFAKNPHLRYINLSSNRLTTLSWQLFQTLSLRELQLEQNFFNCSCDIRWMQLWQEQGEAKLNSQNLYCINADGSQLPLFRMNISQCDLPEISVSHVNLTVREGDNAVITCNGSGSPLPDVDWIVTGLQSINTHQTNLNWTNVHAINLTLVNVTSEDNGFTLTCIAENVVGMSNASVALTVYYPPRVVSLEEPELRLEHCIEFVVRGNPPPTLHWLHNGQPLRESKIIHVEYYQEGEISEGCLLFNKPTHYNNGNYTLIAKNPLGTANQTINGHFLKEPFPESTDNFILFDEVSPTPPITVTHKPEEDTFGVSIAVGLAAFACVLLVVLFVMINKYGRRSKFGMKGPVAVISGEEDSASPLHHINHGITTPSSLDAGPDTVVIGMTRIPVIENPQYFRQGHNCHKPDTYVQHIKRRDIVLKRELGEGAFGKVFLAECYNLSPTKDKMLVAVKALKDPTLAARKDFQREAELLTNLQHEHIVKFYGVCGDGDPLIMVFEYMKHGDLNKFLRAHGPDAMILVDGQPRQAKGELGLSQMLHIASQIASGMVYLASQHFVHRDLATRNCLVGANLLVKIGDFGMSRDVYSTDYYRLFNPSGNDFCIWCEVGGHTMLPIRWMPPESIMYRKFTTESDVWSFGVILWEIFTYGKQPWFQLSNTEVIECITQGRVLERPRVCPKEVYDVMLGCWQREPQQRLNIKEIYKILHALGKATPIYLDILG

`Clc1cnc2[nH]cc(Cc3cnc(NC4CCCCC4)nc3)c2c1` [Compound P-3001, [5-(5-chloro-1H-pyrrolo[2,3-b]pyridin-3-ylmethyl)-pyrimidin-2-yl]-cyclohexyl-amine]: the IC50 was more than 10000 nM at BCR-NTRK3 BaF3 cells, more than 10 µM on CYP3A4(BFC) and more than 10 µM at CYP1A2.

As for `FC1(F)CCC(Nc2ncc(Cc3c[nH]c4ncc(Cl)cc34)cn2)CC1` [Compound P-3004], the IC50 was less than 10000 nM on BCR-NTRK3 BaF3 cells, more than 10 µM at CYP3A4(BFC) and more than 10 µM at CYP1A2.

As for `Clc1cnc2[nH]cc(Cc3cnc(NC4CC4)nc3)c2c1` [Compound P-3005, [5-(5-Chloro-1H-pyrrolo[2,3-b]pyridin-3-ylmethyl)-pyrimidin-2-yl]-cyclopropyl-amine], the IC50 at BCR-NTRK3 BaF3 cells was more than 10000 nM.

As for `Clc1cnc2[nH]cc(Cc3cnc(NC4CCCCCC4)nc3)c2c1` [Compound P-3006, [5-(5-Chloro-1H-pyrrolo[2,3-b]pyridin-3-ylmethyl)-pyrimidin-2-yl]-cycloheptyl-amine], the results for the IC50 at BCR-NTRK3 BaF3 cells, at CYP3A4(BFC) and at CYP1A2 were more than 10000 nM, more than 10 µM and more than 10 µM, respectively.

`COc1ccccc1Nc1ncc(Cc2c[nH]c3ncc(Cl)cc23)cn1` [Compound P-3016, [5-(5-Chloro-1H-pyrrolo[2,3-b]pyridin-3-ylmethyl)-pyrimidin-2-yl]-(2-methoxy-phenyl)-amine]: the IC50 at BCR-NTRK3 BaF3 cells is more than 10000 nM.

Take `Fc1cccc(Nc2ncc(Cc3c[nH]c4ncc(Cl)cc34)cn2)c1` [Compound P-3017, [5-(5-Chloro-1H-pyrrolo[2,3-b]pyridin-3-ylmethyl)-pyrimidin-2-yl]-(3-fluoro-phenyl)-amine]: the IC50 at BCR-NTRK3 BaF3 cells is more than 10000 nM.

Turning to `Cc1cnc2[nH]cc(Cc3cnc(Nc4ccc(C(F)(F)F)nc4)nc3)c2c1` [Compound P-3018, [5-(5-Methyl-1H-pyrrolo[2,3-b]pyridin-3-ylmethyl)-pyrimidin-2-yl]-(6-trifluoromethyl-pyridin-3-yl)-amine], the IC50 was less than 100 nM on BCR-NTRK3 BaF3 cells, less than 5 µM on CYP3A4(BFC) and more than 10 µM on CYP1A2.

For the compound `COc1cc(Nc2ncc(Cc3c[nH]c4ncc(C)cc34)cn2)ccc1F` [Compound P-3022, (4-Fluoro-3-methoxy-phenyl)-[5-(5-methyl-1H-pyrrolo[2,3-b]pyridin-3-ylmethyl)-pyrimidin-2-yl]-amine], on BCR-NTRK3 BaF3 cells, the IC50 was less than 1000 nM.

With `COc1ccc(Nc2ncc(Cc3c[nH]c4ncc(C)cc34)cn2)cc1F` [Compound P-3023, (3-Fluoro-4-methoxy-phenyl)-[5-(5-methyl-1H-pyrrolo[2,3-b]pyridin-3-ylmethyl)-pyrimidin-2-yl]-amine], the IC50 on BCR-NTRK3 BaF3 cells was less than 1000 nM.

Consider `CCc1ccc(Nc2ccc(Cc3c[nH]c4ncc(C)cc34)c(F)n2)cn1` [Compound P-3048, (6-Ethyl-pyridin-3-yl)-[6-fluoro-5-(5-methyl-1H-pyrrolo[2,3-b]pyridin-3-ylmethyl)-pyridin-2-yl]-amine], for which the IC50 on CYP3A4(BFC) and at CYP1A2 was more than 10 µM throughout.

As for `CCc1ccc(Nc2ccc(C(=O)c3c[nH]c4ncc(C)cc34)c(F)n2)cn1` [Compound P-3049, [6-(6-Ethyl-pyridin-3-ylamino)-2-fluoro-pyridin-3-yl]-(5-methyl-1H-pyrrolo[2,3-b]pyridin-3-yl)-methanone], the IC50 at CYP3A4(BFC) and on CYP1A2 was more than 10 µM throughout.

`Cc1cnc2[nH]cc(Cc3ccc(Nc4ccc(C5CC5)nc4)nc3F)c2c1` [Compound P-3050, (6-Cyclopropyl-pyridin-3-yl)-[6-fluoro-5-(5-methyl-1H-pyrrolo[2,3-b]pyridin-3-ylmethyl)-pyridin-2-yl]-amine]: the IC50 on CYP3A4(BFC) and on CYP1A2 was more than 10 µM in each case.

Consider `Cc1cnc2[nH]cc(C(=O)c3ccc(Nc4ccc(C5CC5)nc4)nc3F)c2c1` [Compound P-3051, [6-(6-Cyclopropyl-pyridin-3-ylamino)-2-fluoro-pyridin-3-yl]-(5-methyl-1H-pyrrolo[2,3-b]pyridin-3-yl)-methanone], for which the IC50 at CYP3A4(BFC) and at CYP1A2 was more than 10 µM each time.

For the compound `O=C(c1ccc(Nc2ccc(C3CC3)nc2)nc1F)c1c[nH]c2ncccc12` [Compound P-3052, [6-(6-Cyclopropyl-pyridin-3-ylamino)-2-fluoro-pyridin-3-yl]-(1H-pyrrolo[2,3-b]pyridin-3-yl)-methanone], the IC50 is less than 10 nM on BCR-NTRK3 BaF3 cells, more than 10 µM at CYP3A4(BFC) and more than 10 µM on CYP1A2.

Turning to `Fc1nc(Nc2ccc(C3CC3)nc2)ccc1Cc1c[nH]c2ncccc12` [Compound P-3053, (6-Cyclopropyl-pyridin-3-yl)-[6-fluoro-5-(1H-pyrrolo[2,3-b]pyridin-3-ylmethyl)-pyridin-2-yl]-amine], the IC50 at BCR-NTRK3 BaF3 cells was less than 10 nM; at CYP3A4(BFC), more than 10 µM; on CYP1A2, more than 10 µM.

Regarding `CCOc1ccc(Nc2ccc(Cc3c[nH]c4ncnc(C5CC5)c34)c(F)n2)cn1` [Compound P-4026, [5-(4-Cyclopropyl-7H-pyrrolo[2,3-d]pyrimidin-5-ylmethyl)-6-fluoro-pyridin-2-yl]-(6-ethoxy-pyridin-3-yl)-amine], on BCR-NTRK3 BaF3 cells, the IC50 was less than 10 nM.

Turning to `CCOc1ccc(Nc2ccc(C(=O)c3c[nH]c4ncnc(C5CC5)c34)c(F)n2)cn1` [Compound P-4027, (4-Cyclopropyl-7H-pyrrolo[2,3-d]pyrimidin-5-yl)-[6-(6-ethoxy-pyridin-3-ylamino)-2-fluoro-pyridin-3-yl]-methanone], the IC50 on BCR-NTRK3 BaF3 cells is less than 10 nM.

Take `CCc1ccc(Nc2ccc(Cc3c[nH]c4ncnc(C5CC5)c34)c(F)n2)cn1` [Compound P-4028, [5-(4-Cyclopropyl-7H-pyrrolo[2,3-d]pyrimidin-5-ylmethyl)-6-fluoro-pyridin-2-yl]-(6-ethyl-pyridin-3-yl)-amine]: the IC50 on BCR-NTRK3 BaF3 cells was less than 10 nM; at CYP3A4(BFC), more than 10 µM; on CYP1A2 it was more than 10 µM.

Turning to `CCc1ccc(Nc2ccc(C(=O)c3c[nH]c4ncnc(C5CC5)c34)c(F)n2)cn1` [Compound P-4029, (4-Cyclopropyl-7H-pyrrolo[2,3-d]pyrimidin-5-yl)-[6-(6-ethyl-pyridin-3-ylamino)-2-fluoro-pyridin-3-yl]-methanone], the IC50 at BCR-NTRK3 BaF3 cells was less than 10 nM; at CYP3A4(BFC), more than 10 µM; at CYP1A2 it was more than 10 µM.

For the compound `CCOc1ccc(Nc2ccc(C(=O)c3c[nH]c4ncnc(C)c34)c(F)n2)cn1` [Compound P-4032, [6-(6-Ethoxy-pyridin-3-ylamino)-2-fluoro-pyridin-3-yl]-(4-methyl-7H-pyrrolo[2,3-d]pyrimidin-5-yl)-methanone], at BCR-NTRK3 BaF3 cells, the IC50 was less than 100 nM.

For `CCn1cc(Nc2ccc(C(=O)c3c[nH]c4ncnc(C5CC5)c34)c(F)n2)cn1` [Compound P-4037, (4-Cyclopropyl-7H-pyrrolo[2,3-d]pyrimidin-5-yl)-[6-(1-ethyl-1H-pyrazol-4-ylamino)-2-fluoro-pyridin-3-yl]-methanone], the IC50 at CYP3A4(BFC) is 5 to 10 µM; at CYP1A2, more than 10 µM.

For `Cc1cncc(Nc2ccc(Cc3c[nH]c4ncnc(C5CC5)c34)c(F)n2)c1` [Compound P-4038, [5-(4-Cyclopropyl-7H-pyrrolo[2,3-d]pyrimidin-5-ylmethyl)-6-fluoro-pyridin-2-yl]-(5-methyl-pyridin-3-yl)-amine], the IC50 at BCR-NTRK3 BaF3 cells was less than 100 nM.

In the case of `Cc1cncc(Nc2ccc(C(=O)c3c[nH]c4ncnc(C5CC5)c34)c(F)n2)c1` [Compound P-4039, (4-Cyclopropyl-7H-pyrrolo[2,3-d]pyrimidin-5-yl)-[2-fluoro-6-(5-methyl-pyridin-3-ylamino)-pyridin-3-yl]-methanone], the IC50 at BCR-NTRK3 BaF3 cells is less than 100 nM.
